Where two headings read alike, the source gives them in different places. Marks after values point to notes of the source that are not given here.
Experiments:
D2L dopamine receptor [1] = target: T1, D2L dopamine receptor (Homo sapiens (Human), UniProt P14416); assay: cell-based; type: cell-based
Experimental: (§1) The ability of the lead compound to dose-dependently decrease forskolin-induced cAMP levels is measured. The IC50 values for each receptor subtype is determined by fitting the data points using the Hill equation.
(§2) AtT-20 mouse pituitary cells were grown in Ham's F10 medium with 5% FBS, 10% heat-inactivated horse serum, 2 mM glutamine and 50 μg/ml gentamicin (Invitrogen, Carlsbad, Calif.). AtT-20 cells stabling expressing the human D2S, D2L, D3, and D4.2 and receptor were maintained in the above F10 culture media supplemented with 500 μg/ml G418 (Invitrogen). For electrophysiological characterization, cells were plated onto glass coverslips coated with 40 μg/ml poly L-lysine (Sigma-Aldrich). […] Physiol. […] Neurosci. […] Biophys. […] Neurosci.
(§3) The cAMP levels in each treated sample were assayed in triplicate and the entire experiment repeated three independent times.
(§4) To compare the functional effects of the new class of D3 receptor agonists, PBZI (Table 2) and ES609 (Table 3) were tested on AtT-20 cells stably expressing human D3, D2S, D2L or D4.2.

D4.2 dopamine receptor = D4.2 dopamine receptor (Homo sapiens (Human), UniProt P21917, DEL265-296); assay: cell-based; type: cell-based
Experimental: as §1, §2, §3, §4

[2] = test system: intrastriatal 6-OHDA lesioned rats; assay: Forelimb stepping test in intrastriatal 6-OHDA lesioned rats; conditions: for motor deficits in a rat PD model: FIG. 18
D2L dopamine receptor [3] = target: T1, D2L dopamine receptor; assay: GIRK channel activation, whole cell voltage clamp, AtT-20 cells stably expressing D2L; type: cell-based; conditions: for GIRK channel activation: agonist type: versus full agonist quinpirole
Experimental: The activation of the GIRK channels was measured electrophysiologically using whole cell voltage clamp recording (Kuzhikandathil et al., 2004, Mol. Cell. Neurosci. 26:144-155). The GIRK channel responses elicited with new ligands were compared to quinpirole, a classical full agonist of D2, D3 and D4 dopamine receptors. The adenylyl cyclase inhibition was determined using a commercially available ELISA assay (Westrich & Kuzhikandathil, 2007, Biochim. Biophys. Acta-Mol. Cell. Res. 1773:1747-1758).
In the first assay, whole cell voltage clamp recording is used to measure GIRK response to increasing concentrations of the lead compound (0.01 nM to 3,000 nM dose range). The EC50 values for each receptor subtype is determined by fitting the data points using the Hill equation.
(§5) AtT-20 mouse pituitary cells were grown in Ham's F10 medium with 5% FBS, 10% heat-inactivated horse serum, 2 mM glutamine and 50 μg/ml gentamicin (Invitrogen, Carlsbad, Calif.). AtT-20 cells stabling expressing the human D2S, D2L, D3, and D4.2 and receptor were maintained in the above F10 culture media supplemented with 500 μg/ml G418 (Invitrogen). For electrophysiological characterization, cells were plated onto glass coverslips coated with 40 μg/ml poly L-lysine (Sigma-Aldrich). The generation and characterization of the AtT-20 cells stably expressing various human dopamine receptors have been previously reported (Kuzhikandathil & Oxford, 2000, J. Gen. Physiol. 115:697-706; Kuzhikandathil et al., 1998, Mol. Cell. Neurosci. 12:390-402; Kuzhikandathil & Bartoszyk, 2006, Neuropharm. 51:873-884; Westrich & Kuzhikandathil, 2007, Biochim. Biophys. Acta-MCR 1773:1747-1758; Kuzhikandathil et al., 2004, Mol. Cell. Neurosci. 26:144-155; Westrich et al., 2010, Biochem. Pharmacol. 79:897-907).
Agonist-activated currents were measured by the whole-cell patch clamp technique in voltage clamp and current clamp mode as described previously (Kuzhikandathil & Oxford, 2000, J. Gen. Physiol. 115:697-706; Kuzhikandathil et al., 1998, Mol. Cell. Neurosci. 12:390-402; Kuzhikandathil & Bartoszyk, 2006, Neuropharm. 51:873-884; Westrich & Kuzhikandathil, 2007, Biochim. Biophys. Acta-MCR 1773:1747-1758; Kuzhikandathil et al., 2004, Mol. Cell. Neurosci. 26:144-155; Westrich et al., 2010, Biochem. Pharmacol. 79:897-907). Drug solutions were delivered to cells via a multi-barreled micropipette array. The current responses were normalized to the cell capacitance, to account for variation in cell size.
(§6) To compare the functional effects of the new class of D3 receptor agonists, PBZI (Table 2) and ES609 (Table 3) were tested on AtT-20 cells stably expressing human D3, D2S, D2L or D4.2. Functional efficacy was determined by assessing the ability of PBZI and ES609 to inhibit adenylyl cyclase or activate GIRK channels coupled to these “D2-like” dopamine receptors. The EC50 values of PBZI and ES609 for inhibiting adenylyl cyclase and activating GIRK channels were in the range of 0.2 nM to 30 nM for D3 receptors.

D3 dopamine receptor = D3 dopamine receptor (Homo sapiens (Human), UniProt P35462); assay: Adenylyl cyclase inhibition (forskolin-induced cAMP) in AtT-20 cells stably expressing D3; type: cell-based; conditions: for Adenylyl cyclase inhibition: agonist type: versus full agonist quinpirole
Experimental: In the second functional assay, the ability of D2-like dopamine receptors to inhibit adenylyl cyclase activity is assessed. The ability of the lead compound to dose-dependently decrease forskolin-induced cAMP levels is measured. The IC50 values for each receptor subtype is determined by fitting the data points using the Hill equation. Previously, the EC50 and IC50 values for dopamine and quinpirole has been determined in these cell lines in both functional assays.
as §5
Cyclic AMP (cAMP) levels were assessed using the cAMP Biotrak Enzymeimmunoassay (EIA) kit (GE Healthcare, Piscataway, N.J., USA) as described previously (Kuzhikandathil & Bartoszyk, 2006, Neuropharm. 51:873-884). The cAMP levels in each treated sample were assayed in triplicate and the entire experiment repeated three independent times.
as §6

[4] = AtT-20 cells, D3, read-out: Adenylyl cyclase inhibition EC50
[5] = D3 receptors, range over both compounds and both assays, read-out: EC50 for inhibiting adenylyl cyclase and activating GIRK channels

Chain of D4.2 dopamine receptor (P21917 other isoform, or with tags, fused parts or gaps del 265-296): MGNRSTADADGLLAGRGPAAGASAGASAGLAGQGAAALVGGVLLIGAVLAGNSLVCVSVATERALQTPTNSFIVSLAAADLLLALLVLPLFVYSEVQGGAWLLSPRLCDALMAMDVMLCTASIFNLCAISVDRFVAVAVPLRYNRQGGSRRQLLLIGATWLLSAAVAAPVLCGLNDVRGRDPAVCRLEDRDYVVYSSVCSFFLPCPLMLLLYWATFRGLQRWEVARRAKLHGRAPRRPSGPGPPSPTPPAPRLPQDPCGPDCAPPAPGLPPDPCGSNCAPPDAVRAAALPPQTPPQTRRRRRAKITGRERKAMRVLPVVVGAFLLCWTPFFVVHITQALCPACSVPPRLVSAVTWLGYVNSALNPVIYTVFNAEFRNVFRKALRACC
T1 sequence (P14416 whole entry): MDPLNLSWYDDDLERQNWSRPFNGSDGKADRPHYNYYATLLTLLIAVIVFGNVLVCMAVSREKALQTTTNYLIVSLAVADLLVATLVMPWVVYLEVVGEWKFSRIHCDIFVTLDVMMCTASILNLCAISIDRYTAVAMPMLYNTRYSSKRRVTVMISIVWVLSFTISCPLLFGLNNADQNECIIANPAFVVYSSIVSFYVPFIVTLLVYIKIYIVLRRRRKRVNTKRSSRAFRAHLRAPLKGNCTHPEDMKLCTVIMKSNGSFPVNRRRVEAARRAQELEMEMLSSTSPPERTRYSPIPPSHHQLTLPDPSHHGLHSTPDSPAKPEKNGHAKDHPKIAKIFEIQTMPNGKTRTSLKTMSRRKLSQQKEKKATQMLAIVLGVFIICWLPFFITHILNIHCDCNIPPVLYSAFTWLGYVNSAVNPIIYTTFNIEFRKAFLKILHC
Chain of D3 dopamine receptor (P35462 other isoform, or with tags, fused parts or gaps): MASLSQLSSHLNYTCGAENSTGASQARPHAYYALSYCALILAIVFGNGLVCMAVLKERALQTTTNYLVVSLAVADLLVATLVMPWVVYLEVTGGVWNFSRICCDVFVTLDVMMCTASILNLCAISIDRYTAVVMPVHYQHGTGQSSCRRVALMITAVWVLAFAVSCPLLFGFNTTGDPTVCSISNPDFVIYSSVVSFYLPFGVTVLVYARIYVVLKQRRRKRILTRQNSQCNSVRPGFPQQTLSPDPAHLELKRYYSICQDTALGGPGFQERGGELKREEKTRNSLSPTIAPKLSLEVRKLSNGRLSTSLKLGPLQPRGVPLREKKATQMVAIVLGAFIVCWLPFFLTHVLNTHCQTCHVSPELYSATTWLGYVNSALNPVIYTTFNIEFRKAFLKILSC

CC(N)CCc1ccccc1Cl (stereo not drawn) [ES609]
Adenylyl cyclase inhibition: agonist type (D2L dopamine receptor [1]): did not elicit any response
Adenylyl cyclase inhibition EC50 (D2L dopamine receptor [1]; AtT-20 cells, D2L): No response
Adenylyl cyclase inhibition Ratio of ES609 to quinpirole response (at 300 nM) (D2L dopamine receptor [1]; D2L, 300 nM): 0^†
adenylyl cyclase inhibition at 300 nM (D2L dopamine receptor [1]; D2L, 300 nM): ^†no adenylyl cyclase inhibition in the presence of 300 nM ES609; but 300 nM quinpirole elicits ~80% inhibition.
Adenylyl cyclase inhibition: agonist type (D2L dopamine receptor [1]; listed as ES0609): No response
Adenylyl cyclase inhibition: agonist type (D4.2 dopamine receptor): partial agonist
EC50 (D4.2 dopamine receptor; AtT-20 cells, D4.2, read-out: Adenylyl cyclase inhibition EC50): 0.82 nM
Adenylyl cyclase inhibition Ratio of ES609 to quinpirole response (at 300 nM) (D4.2 dopamine receptor; D4.2, 300 nM): 0.60*
Adenylyl cyclase inhibition: agonist type (D4.2 dopamine receptor; listed as ES0609): Partial
motor deficits in a rat PD model [2]: improve motor deficits
GIRK channel activation Ratio of ES609 to quinpirole response (at 300 nM) (D2L dopamine receptor [3]; 300 nM): 0.32*
GIRK channel activation: agonist type (D2L dopamine receptor [3]): partial agonist
GIRK channel activation: agonist type (D2L dopamine receptor [3]; listed as ES0609): Partial
EC50 (D3 dopamine receptor; [4]): 0.15 nM
Adenylyl cyclase inhibition Ratio of ES609 to quinpirole response (at 300 nM) (D3 dopamine receptor; D3, 300 nM): 0.71
Adenylyl cyclase inhibition: agonist type (D3 dopamine receptor; D3): full agonists
Adenylyl cyclase inhibition: agonist type (D3 dopamine receptor; D3, listed as ES0609): Full
EC50 (D3 dopamine receptor; [5]): 0.2 to 30 nM

CCCN1CC[C@@H]2c3cc(O)ccc3CC[C@@H]21 [PBZI, (3aS,9bR)-3-propyl-1,2,3a,4,5,9b-hexahydrobenzo[e]indol-8-ol]
Adenylyl cyclase inhibition: agonist type (D2L dopamine receptor [1]): full agonist and full
EC50 (D2L dopamine receptor [1]; AtT-20 cells, D2L, read-out: Adenylyl cyclase inhibition EC50): 67 nM
Adenylyl cyclase inhibition Ratio of PBZI to quinpirole response (at 300 nM) (D2L dopamine receptor [1]; D2L, 300 nM): 0.83
Adenylyl cyclase inhibition: agonist type (D4.2 dopamine receptor): elicited no response and no
Adenylyl cyclase inhibition EC50 (D4.2 dopamine receptor; AtT-20 cells, D4.2): No response
Adenylyl cyclase inhibition Ratio of PBZI to quinpirole response (at 300 nM) (D4.2 dopamine receptor; D4.2, 300 nM): 0^†
adenylyl cyclase inhibition at 300 nM (D4.2 dopamine receptor; D4.2, 300 nM): ^†no adenylyl cyclase inhibition in the presence of 300 nM PBZI; but 300 nM quinpirole elicits ~70% inhibition.
motor deficits in a rat PD model [2]: improve motor deficits
effect on beneficial effect of levodopa on bradykinesia/akinesia (stepping test) ([2]; co-administration of PBZI and levodopa): did not attenuate the beneficial effect of levodopa
GIRK channel activation Ratio of PBZI to quinpirole response (at 300 nM) (D2L dopamine receptor [3]; 300 nM): 0.75
GIRK channel activation: agonist type (D2L dopamine receptor [3]): full agonist
EC50 (D3 dopamine receptor; [4]): 35 nM
Adenylyl cyclase inhibition Ratio of PBZI to quinpirole response (at 300 nM) (D3 dopamine receptor; D3, 300 nM): 0.97
Adenylyl cyclase inhibition: agonist type (D3 dopamine receptor; D3): full agonists and full
EC50 (D3 dopamine receptor; [5]): 0.2 to 30 nM
